Test results taken from patent US11391740B2, “Methods and materials for identifying and treating cancer” (Mayo Foundation for Medical Education and Research, priority 2019, dated 2022).

How the values were obtained:
ENZ-resistant PDXs = test: ENZ-resistant patient-derived xenograft (PDX) tumor growth in mice; type: in vivo; details: castrated male mice; ENZ 10 mg/kg, CPI637 10 mg/kg, JQ1 50 mg/kg, oral gavage 5 days per week
C4-2ENZ-R cells = test: SRB cell proliferation assay in enzalutamide-resistant C4-2 cells; type: cell-based, human; details: for sensitivity of C4-2ENZ-R cells compared with C4-2CON cells by half maximal inhibitory concentration (IC50): C4-2ENZ-R vs C4-2CON, 4 days, FIGS. 5A-5C
Description: FIGS. 5A-5D: Dual inhibition of BET and CBP/p300 overcomes ENZ-resistance in ARPCa. A: Heatmap showing the sensitivity of control (C4-2CON) and enzalutamide-resistant C4-2 cells (C4-2ENZ-R) to various inhibitor. B-C: C4-2CON and C4-2ENZ-R cells were treated with the indicated concentrations of BET inhibitor (JQ1) and CBP/p300 inhibitor (CPI637) for 4 days, the cell proliferation was measured by SRB assay, and the 96 well plates were imaged. Data are represented as means±s.d., n=4. Statistical significance was determined by two-way ANOVA. D: C4-2ENZ-R cells were treated with the indicated concentrations of ENZ, JQ1, CPI637, or a combination of JQ1 and CPI-637, and cell proliferation was measured by a SRB assay. Data are represented as means±s.d., n=6. Statistical significance was determined by two-way ANOVA.
FIGS. 7A-7E. Full-length AR, but not AR variants, drives ENZ-resistant cell proliferation. A: C4-2CON and C4-2ENZ-R cells were treated with the indicated concentrations of ENZ, and cell proliferation was measured by SRB assay. Data are represented as means±s.d., n=6. Statistical significance was determined by two-way ANOVA. B: Heatmap showing RNA-seq read intensity of the canonical AR signature genes in C4-2CON and C4-2ENZ-R cells. C: RT-qPCR showing the mRNA level of KLK3 in C4-2CON and C4-2ENZ-R cells. Data are represented as means±s.d., n=3. Statistical significance was determined by unpaired two-tailed Student's t tests. D: Western blot analysis showing the expression of full-length (FL) AR and AR variants (Vs) in C4-2CON and C4-2ENZ-R cells. ERK2 was used as a loading control. E: UCSC genome browser tracks showing RNA-seq signals of AR and AR variants in C4-2CON and C4-2ENZ-R cells.
LNCaP, VCaP, LAPC4 PCa, and 293T cell lines were purchased from ATCC. […]
293T cells were co-transfected with control shRNA or shRNA specific for human AR, CXXC5, TET2, ID1, ID3 and PFN2. […] Cells were fixed at different time points (day 0-5) and cell growth was measured using a sulforhodamine B (SRB) assay (He et al., Nature Commun., 7:13122 (2016)).

CRPC PDX = test: CRPC patient-derived xenograft (PDX) tumor growth in mice; type: in vivo; details: ENZ 10 mg/kg daily, 32 days
Source text: FIG. 11A-D. Upregulation of CXXC5 and ID1 in AFI-resistant PCa patients. A: H&E staining and IHC for AR, CXXC5, and ID1 in hormone naïve, CRPC and ENZ-resistant PC patient specimens. Scale bar, 200 μm. B: H&E staining and IHC for AR, CXXC5, and ID1 in ABI-resistant ARPC patient specimens. Scale bar, 200 m (low magnification); 50 m (high magnification). C-D: Comparison of ENZ response in CRPC and ENZ-resistant PDXs. CRPC and ENZ-resistant PDXs were planted into the right flank of 6 week-old male SCID mice. After the tumor volume reached about 100 mm^3, mice were randomly assigned within each tumor group and treated with 10 mg/kg of […] daily. Tumor size was measured every 4 days (C). After 32 days of treatment, tumors were isolated and photographed (D). Data are represented as means±s.d., n=8. Statistical significance was determined by two-way ANOVA.
NOD-SCID male mice were generated in house and used for animal experiments. All mice were housed under standard conditions with a 12 hour light/dark cycle and access to food and water ad libitum and maintained under pathogen-free conditions. […] Mice were treated 5 days per week by oral gavage and tumor growth was measured in a blinded fashion using digital calipers. The tumor volume was calculated using the following equation: tumor volume=length×width×width×0.5.

C4-2ENZ-R xenografts = test: C4-2ENZ-R xenograft tumor growth in SCID mice; type: in vivo; details: ENZ 10 mg/kg per day, 28 days, FIGS. 1A, 1B
Description: FIGS. 1A-1G. Genome-wide profiling of AR chromatin binding in ENZ-resistant PCa cells. A: Effect of ENZ treatment on growth of C4-2CON and C4-2ENZ-R xenografts in mice. C4-2ENZ-R and C4-2CON cells suspended in 0.1 mL matrigel were injected into the right flank of 6-week old male SCID mice. After the volume of tumor nodules reached about 100 mm^3, mice were randomly assigned within control and ENZ-resistant groups and were treated with ENZ at 10 mg/kg or vehicle per day and tumor volume was measured every 4 days. B: After 28 days of treatment, tumors were isolated from mice in each group and photographed. Data are represented as means±s.d., n=8. Statistical significance was determined by two-way ANOVA. […] D: AR was knocked down by specific shRNAs in C4-2CON and C4-2ENZ-R cells, and cell proliferation was measured by SRB assay. […] Statistical significance was determined by two-way ANOVA. E: Venn diagram showing AR chromatin binding peaks in C4-2CON and C4-2ENZ-R cells detected by ChIP-seq. F: Heatmaps showing ChIP-seq read intensity of AR, H3K27ac, and FOXA1 in C4-2CON and C4-2ENZ-R cells. […]
FIGS. 6A-6G. […] Representative images (scale bar, 50 μm), and quantified data are show in (a) and (b), respectively. […] Tumor size was measured every 4 days (d). After 28 days of treatment, tumors isolated from mice were photographed (e), and tumor weight was measured (f). […]

## C[C@@H]1CC(=O)Nc2cccc(-c3ccc4c(c3)c(-c3cnn(C)c3)nn4C)c2N1 [CPI637]
ENZ-resistant PDXs
  response of ENZ-resistant PDXs to treatment: responded
C4-2ENZ-R cells
  sensitivity of C4-2ENZ-R cells compared with C4-2CON cells by half maximal inhibitory concentration (IC50): much more sensitive

## CNC(=O)c1ccc(N2C(=S)N(c3ccc(C#N)c(C(F)(F)F)c3)C(=O)C2(C)C)cc1F [ENZ, enzalutamide]
CRPC PDX
  response of CRPC PDX to treatment: still responded
C4-2ENZ-R xenografts
  growth of C4-2ENZ-R xenografts under ENZ treatment in vivo: resistant to ENZ treatment
C4-2ENZ-R cells; in vitro, FIG. 7A
  growth of C4-2ENZ-R cells under ENZ treatment in vitro: resistant to ENZ treatment

## Cc1sc2c(c1C)C(c1ccc(Cl)cc1)=N[C@@H](CC(=O)OC(C)(C)C)c1nnc(C)n1-2 [JQ1]
ENZ-resistant PDXs
  response of ENZ-resistant PDXs to treatment: responded
C4-2ENZ-R cells
  sensitivity of C4-2ENZ-R cells compared with C4-2CON cells by half maximal inhibitory concentration (IC50): much more sensitive
